According to ChEMBL document CHEMBL1137222, “Architecture of P2Y nucleotide receptors: structural comparison based on sequence analysis, mutagenesis, and homology modeling” (J Med Chem, 2004):

Experiments:
Format in all cases: cell-based
[1] = target: P2Y purinoceptor 1 (Homo sapiens, UniProt P47900, Y306A); test: Inhibition concentration required against human Y306A mutant strain P2Y1 receptor expressed in COS-7 cells is determined using [3H]MRS2279 as radioligand
[2] = target: P2Y purinoceptor 1 (Homo sapiens, UniProt P47900); test: Inhibition concentration required against wild type strain P2Y1 receptor expressed in COS-7 cells is determined using [3H]-MRS2279 as radioligand
[3] = target: P2Y purinoceptor 1 (Homo sapiens, UniProt P47900, Y203A); test: Inhibition concentration required against human Y203A (EL2) mutant strain P2Y1 receptor expressed in COS-7 cells is determined using [3H]MRS2279 as radioligand
[4] = target: P2Y purinoceptor 1 (Homo sapiens, UniProt P47900, Y273A); test: Inhibition concentration required against human Y273A mutant strain P2Y1 receptor expressed in COS-7 cells is determined using [3H]-MRS2279 as radioligand
[5] = target: P2Y purinoceptor 1 (Homo sapiens, UniProt P47900, Y203F); test: Inhibition concentration required against human Y203F mutant strain P2Y1 receptor expressed in COS-7 cells is determined using [3H]MRS2279 as radioligand
[6] = target: P2Y purinoceptor 1 (Homo sapiens, UniProt P47900, Y306F); test: Inhibition concentration required against human Y306F mutant strain P2Y1 receptor expressed in COS-7 cells is determined using [3H]MRS2279 as radioligand
[7] = target: P2Y purinoceptor 1 (Homo sapiens, UniProt P47900, Y273F); test: Inhibition concentration required against human Y273F mutant strain P2Y1 receptor expressed in COS-7 cells is determined using [3H]MRS2279 as radioligand
Chain of P2Y purinoceptor 1 (Homo sapiens, UniProt P47900, Y273F) (P47900 whole entry Y273F): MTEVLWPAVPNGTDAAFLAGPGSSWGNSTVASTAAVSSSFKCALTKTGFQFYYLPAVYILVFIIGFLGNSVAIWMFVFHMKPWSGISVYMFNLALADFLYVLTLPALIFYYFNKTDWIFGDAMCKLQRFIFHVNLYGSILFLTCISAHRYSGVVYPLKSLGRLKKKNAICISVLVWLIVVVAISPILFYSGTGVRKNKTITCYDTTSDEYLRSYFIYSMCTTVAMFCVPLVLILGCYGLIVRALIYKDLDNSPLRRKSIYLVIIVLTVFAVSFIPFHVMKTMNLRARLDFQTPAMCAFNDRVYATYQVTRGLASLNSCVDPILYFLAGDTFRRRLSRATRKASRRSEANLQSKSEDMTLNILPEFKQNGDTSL

Chain of P2Y purinoceptor 1 (Homo sapiens, UniProt P47900, Y273A) (P47900 whole entry Y273A): as the sequence (P47900 whole entry Y273F) above, with F273A counted along it
Chain of P2Y purinoceptor 1 (Homo sapiens, UniProt P47900, Y306A) (P47900 whole entry Y306A): as the sequence (P47900 whole entry Y273F) above, with F273Y, Y306A counted along it
Chain of P2Y purinoceptor 1 (Homo sapiens, UniProt P47900, Y203A) (P47900 whole entry Y203A): as the sequence (P47900 whole entry Y273F) above, with Y203A, F273Y counted along it
Chain of P2Y purinoceptor 1 (Homo sapiens, UniProt P47900) (P47900 whole entry): as the sequence (P47900 whole entry Y273F) above, with F273Y counted along it
Chain of P2Y purinoceptor 1 (Homo sapiens, UniProt P47900, Y203F) (P47900 whole entry Y203F): as the sequence (P47900 whole entry Y273F) above, with Y203F, F273Y counted along it
Chain of P2Y purinoceptor 1 (Homo sapiens, UniProt P47900, Y306F) (P47900 whole entry Y306F): as the sequence (P47900 whole entry Y273F) above, with F273Y, Y306F counted along it

- IC50 [1]: 320 nM
- IC50 [2]: 210 nM
- IC50 [3]: 740 nM
- IC50 [4]: 480 nM
- IC50 [5]: 330 nM
- IC50 [6]: 980 nM
- IC50 [7]: 660 nM
SMILES: CNc1ncnc2c1ncn2[C@H]1CC(OP(=O)(O)O)[C@@H](COP(=O)(O)O)O1 (single isomer, unassigned)
